In ChEMBL document CHEMBL1201862, “PubChem BioAssay data set” (2004):
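Protocol summary: plate cells (96-well), add compound at 5 concentrations, incubate 48 h, interpolate endpoints linearly. At the GI50, growth is halved.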 Calls of active or inactive are those of the source. No stated cut-off is given here; in the data, active = GI50 up to about 1.1 µM and inactive = higher.

Experiments:
Test in all cases: NCI-60 cell line screen, 48 h
HCT-15 = tested on: HCT-15
OVCAR-4 = tested on: OVCAR-4
CAKI-1 = tested on: CAKI-1
Malme-3M = tested on: Malme-3M
U-251 = tested on: U-251
M14 = tested on: M14
HOP-92 = tested on: HOP-92
A549 = tested on: A549
SK-MEL-5 = tested on: SK-MEL-5
NCI/ADR-RES = tested on: NCI/ADR-RES
SK-MEL-28 = tested on: SK-MEL-28
SK-MEL-2 = tested on: SK-MEL-2
HCT-116 = tested on: HCT-116
MDA-N = tested on: MDA-N
K562 = tested on: K562
UACC-257 = tested on: UACC-257
OVCAR-5 = tested on: OVCAR-5
SK-OV-3 = tested on: SK-OV-3
LOX IMVI = tested on: LOX IMVI
CCRF-CEM = tested on: CCRF-CEM

| Compound | GI50 (HCT-15) | GI50 (OVCAR-4) | GI50 (CAKI-1) | GI50 (Malme-3M) | GI50 (U-251) | GI50 (M14) | GI50 (HOP-92) | GI50 (A549) | GI50 (SK-MEL-5) | GI50 (NCI/ADR-RES) | GI50 (SK-MEL-28) | GI50 (SK-MEL-2) | GI50 (HCT-116) | GI50 (MDA-N) | GI50 (K562) | GI50 (UACC-257) | GI50 (OVCAR-5) | GI50 (SK-OV-3) | GI50 (LOX IMVI) | GI50 (CCRF-CEM) |
| --- | --- | --- | --- | --- | --- | --- | --- | --- | --- | --- | --- | --- | --- | --- | --- | --- | --- | --- | --- | --- |
| O=C(COc1ccc(OCC(=O)N2C(=O)CN(c3ccc(Cl)cc3)C2=S)cc1)N1C(=O)CN(c2ccc(Cl)cc2)C1=S | 29.9 µM | 25.9 µM (inactive) | 19.6 µM (inactive) | 41.2 µM (inactive) | 24 µM (inactive) | 29 µM (inactive) | 21.8 µM (inactive) | 21.5 µM (inactive) | 16.2 µM (inactive) | 28.7 µM (inactive) | 36.3 µM (inactive) | 13.3 µM (inactive) | 15.7 µM (inactive) | 29.9 µM (inactive) | 29.3 µM (inactive) | 27.8 µM (inactive) | 36.1 µM (inactive) | 26.9 µM (inactive) | – | – |
| C#CC(=O)OCC#CCOC(=O)C#C | 18.7 µM | – | 19.8 µM (inactive) | 19.1 µM (inactive) | 17.5 µM (inactive) | 23.4 µM (inactive) | 16.9 µM (inactive) | 27.9 µM (inactive) | 72.9 µM (inactive) | 24.9 µM (inactive) | – | 20.2 µM (inactive) | 15.7 µM (inactive) | 38.8 µM (inactive) | – | > 100 µM (inactive) | – | > 100 µM (inactive) | 1.05 µM (active) | 15.9 µM (inactive) |
| CC(C)=CCC[C@](C)(O[C@@H]1O[C@H](CO)[C@@H](O)[C@H](O)[C@H]1O)[C@H]1CC[C@]2(C)[C@@H]1[C@H](O)C[C@@H]1[C@@]3(C)CC[C@H](O)C(C)(C)[C@@H]3[C@@H](O[C@@H]3O[C@H](CO)[C@@H](O)[C@H](O)[C@H]3O[C@@H]3O[C@@H](C)[C@H](O)[C@@H](O)[C@H]3O)C[C@]12C.CC(C)=CCC[C@](C)(O[C@@H]1O[C@H](CO)[C@@H](O)[C@H](O)[C@H]1O)[C@H]1CC[C@]2(C)[C@@H]1[C@H](O)C[C@@H]1[C@@]3(C)CC[C@H](O)C(C)(C)[C@@H]3[C@@H](O[C@@H]3O[C@H](CO)[C@@H](O)[C@H](O)[C@H]3O[C@@H]3O[C@H](CO)[C@@H](O)[C@H](O)[C@H]3O)C[C@]12C | > 75 µM | > 75 µM (inactive) | > 75 µM (inactive) | – | > 75 µM (inactive) | > 75 µM (inactive) | > 75 µM (inactive) | > 75 µM (inactive) | > 75 µM (inactive) | > 75 µM (inactive) | > 75 µM (inactive) | > 75 µM (inactive) | > 75 µM (inactive) | > 75 µM (inactive) | > 75 µM (inactive) | > 75 µM (inactive) | > 75 µM (inactive) | > 75 µM (inactive) | > 75 µM (inactive) | > 75 µM (inactive) |
| COc1ccc(/C(Cl)=C(\C=O)c2ccc([N+](=O)[O-])cc2)cc1OC | 5 µM | – | 9.08 µM (inactive) | 14.6 µM (inactive) | 6.32 µM (inactive) | 7.28 µM (inactive) | 7.28 µM (inactive) | 24.7 µM (inactive) | 8.2 µM (inactive) | 6.38 µM (inactive) | 13.1 µM (inactive) | 21 µM (inactive) | 6.15 µM (inactive) | 3.25 µM (inactive) | 3.62 µM (inactive) | 11.5 µM (inactive) | 5.13 µM (inactive) | 26.7 µM (inactive) | 2.87 µM (inactive) | 2.44 µM (inactive) |
| Cc1c(NC(=O)CCl)c(=O)oc2c(C)c3occc(=O)c3cc12 | > 10 µM | 11.5 µM (inactive) | 12.3 µM (inactive) | 21.1 µM (inactive) | 14.4 µM (inactive) | 13.1 µM (inactive) | 14.2 µM (inactive) | 14.5 µM (inactive) | 10.9 µM (inactive) | 18.6 µM (inactive) | 12.8 µM (inactive) | – | 11.6 µM (inactive) | 16.1 µM (inactive) | 10.1 µM (inactive) | 12.1 µM (inactive) | 18.5 µM (inactive) | 18.2 µM (inactive) | – | 3.48 µM (inactive) |
